# Measured values: patent publication US6358885B1, “Substituted phenylheterocyclic herbicides” (Mississippi State University, priority 1992, dated 2002)
# What was measured:
# [1] = test system: chickweed; assay: Test C preemergence/postemergence greenhouse plant response rating 0 to 100; assay type: in vivo, Stellaria media; conditions: POSTEMERGENCE; for Plant response rating, Chickweed: 0 to 100 scale
# In short: (§1)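 Compounds in non-phytotoxic solvent applied preemergence to sandy loam one day after planting, postemergence at the 1–4 leaf stage, or to ~2.5 cm floodwater over silt loam.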
# [2] = test system: cotton; assay: as above; assay type: in vivo, Gossypium hirsutum; conditions: POSTEMERGENCE; for Plant response rating, Cotton: 0 to 100 scale
# In short: as §1
# [3] = test system: giant foxtail; assay: as above; assay type: in vivo, Setaria faberii; conditions: POSTEMERGENCE; for Plant response rating, Giant foxtail: 0 to 100 scale
# In short: as §1
# [4] = test system: corn; assay: as above; assay type: in vivo, Zea mays; conditions: POSTEMERGENCE; for Plant response rating, Corn: 0 to 100 scale
# In short: as §1
# [5] = test system: cocklebur; assay: Test B preemergence/postemergence greenhouse plant response rating 0 to 10; assay type: in vivo, Xanthium pensylvanicum; conditions: 0 to 10 scale
# In short: (§2)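 Test chemicals were sprayed onto freshly planted seed and, concurrently, onto young plants between the one and four leaf stage. After a twelve- to sixteen-day greenhouse period, each species was visually compared with untreated controls.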
# [6] = test system: sugar beet; assay: Test C preemergence/postemergence greenhouse plant response rating 0 to 100; assay type: in vivo, Beta vulgaris; conditions: POSTEMERGENCE; for Plant response rating, Sugar beet: 0 to 100 scale
# In short: as §1
# [7] = test system: pigweed; assay: as above; assay type: in vivo, Amaranthusretroflexus; conditions: POSTEMERGENCE; for Plant response rating Pigweed: 0 to 100 scale
# In short: as §1
# [8] = test system: rice; assay: Test B preemergence/postemergence greenhouse plant response rating 0 to 10; assay type: in vivo, Oryza sativa; conditions: 0 to 10 scale
# In short: as §2
# [9] = test system: wild buckwheat; assay: as above; assay type: in vivo, Polygonum convolvulus; conditions: 0 to 10 scale
# In short: as §2
# [10] = test system: duck salad; assay: Test C flood test plant response rating 0 to 100; assay type: in vivo, Heteranthera limosa; conditions: for Plant response rating (0 to 100), Duck salad: under POSTEMERGENCE head (flood test species); for Plant response rating Duck salad: flood test species listed under POSTEMERGENCE, 0 to 100 scale
# In short: as §1
# [11] = test system: bedstraw; assay: Test C preemergence/postemergence greenhouse plant response rating 0 to 100; assay type: in vivo, Galium aparine; conditions: POSTEMERGENCE; for Plant response rating, Bedstraw: 0 to 100 scale
# In short: as §1
# [12] = test system: soybean; assay: Test B preemergence/postemergence greenhouse plant response rating 0 to 10; assay type: in vivo, Glycine max; conditions: 0 to 10 scale
# In short: as §2
# [13] = test system: blackgrass; assay: Test C preemergence/postemergence greenhouse plant response rating 0 to 100; assay type: in vivo, Alopecurus myosuroides; conditions: POSTEMERGENCE; for Plant response rating, Blackgrass: 0 to 100 scale
# In short: as §1
# [14] = test system: umbrella sedge; assay: Test C flood test plant response rating 0 to 100; assay type: in vivo, Cyperus difformis; conditions: for Plant response rating (0 to 100), Umbrella sedge: under POSTEMERGENCE head (flood test species); for Plant response rating Umbrella sedge: flood test species listed under POSTEMERGENCE, 0 to 100 scale
# In short: as §1
# [15] = test system: purple nutsedge; assay: Test B preemergence/postemergence greenhouse plant response rating 0 to 10; assay type: in vivo, Cyperus rotundus; conditions: 0 to 10 scale
# In short: as §2
# [16] = test system: rice; assay: Test C flood test plant response rating 0 to 100; assay type: in vivo, Oryza sativa; conditions: for Plant response rating (0 to 100), Rice Japonica: under POSTEMERGENCE head (flood test species); for Plant response rating Rice Japonica: flood test species listed under POSTEMERGENCE, 0 to 100 scale
# In short: as §1
# [17] = test system: velvetleaf; assay: Test C preemergence/postemergence greenhouse plant response rating 0 to 100; assay type: in vivo, Abutilon theophrasti; conditions: POSTEMERGENCE; for Plant response rating, Velvetleaf: 0 to 100 scale
# In short: as §1
structure (smiles),measurement,setting,value
CCOC(=O)COc1cc(-c2nn3c(c2Cl)CCCC3)c(F)cc1Cl [Compound 42],"Plant response rating, Chickweed",[1]; 62 g/ha,50
same,"Plant response rating, Chickweed",[1]; 125 g/ha,60
same,"Plant response rating (0 to 100), Chickweed",[1]; Rate 16 g/ha,20
same,"Plant response rating (0 to 100), Chickweed",[1]; Rate 31 g/ha,40
same,"Plant response rating, Cotton",[2]; 62 g/ha,100
same,"Plant response rating, Cotton",[2]; 125 g/ha,100
same,"Plant response rating (0 to 100), Cotton",[2]; Rate 16 g/ha,100
same,"Plant response rating (0 to 100), Cotton",[2]; Rate 31 g/ha,100
same,"Plant response rating, Giant foxtail",[3]; 62 g/ha,50
same,"Plant response rating, Giant foxtail",[3]; 125 g/ha,70
same,"Plant response rating (0 to 100), Giant foxtail",[3]; Rate 16 g/ha,30
same,"Plant response rating (0 to 100), Giant foxtail",[3]; Rate 31 g/ha,30
same,"Plant response rating, Corn",[4]; 62 g/ha,40
same,"Plant response rating, Corn",[4]; 125 g/ha,40
same,"Plant response rating (0 to 100), Corn",[4]; Rate 16 g/ha,20
same,"Plant response rating (0 to 100), Corn",[4]; Rate 31 g/ha,30
same,"Plant response rating, Cocklebur","[5]; POSTEMERGENCE, Rate 50 g/ha",10
same,"Plant response rating, Cocklebur","[5]; POSTEMERGENCE, Rate 200 g/ha",10
same,"Plant response rating, Cocklebur","[5]; PREEMERGENCE, Rate 50 g/ha",0
same,"Plant response rating, Cocklebur","[5]; Rate 200 g/ha, PREEMERGENCE",0
same,"Plant response rating, Sugar beet",[6]; 62 g/ha,100
same,"Plant response rating, Sugar beet",[6]; 125 g/ha,100
same,"Plant response rating (0 to 100), Sugar beet",[6]; Rate 16 g/ha,100
same,"Plant response rating (0 to 100), Sugar beet",[6]; Rate 31 g/ha,100
same,Plant response rating Pigweed,[7]; 62 g/ha,90
same,Plant response rating Pigweed,[7]; 125 g/ha,90
same,"Plant response rating (0 to 100), Pigweed",[7]; Rate 16 g/ha,90
same,"Plant response rating (0 to 100), Pigweed",[7]; Rate 31 g/ha,90
same,"Plant response rating, Rice","[8]; POSTEMERGENCE, Rate 50 g/ha",4
same,"Plant response rating, Rice","[8]; PREEMERGENCE, Rate 50 g/ha",0
same,"Plant response rating, Rice","[8]; Rate 200 g/ha, POSTEMERGENCE",6
same,"Plant response rating, Rice","[8]; Rate 200 g/ha, PREEMERGENCE",2
same,"Plant response rating, Wild buckwheat","[9]; POSTEMERGENCE, Rate 50 g/ha",9
same,"Plant response rating, Wild buckwheat","[9]; PREEMERGENCE, Rate 50 g/ha",0
same,"Plant response rating, Wild buckwheat","[9]; Rate 200 g/ha, POSTEMERGENCE",9
same,"Plant response rating, Wild buckwheat","[9]; Rate 200 g/ha, PREEMERGENCE",7
same,"Plant response rating (0 to 100), Duck salad",[10]; Rate 16 g/ha,0
same,"Plant response rating (0 to 100), Duck salad",[10]; Rate 31 g/ha,0
same,Plant response rating Duck salad,[10]; 62 g/ha,0
same,Plant response rating Duck salad,[10]; 125 g/ha,20
same,"Plant response rating, Bedstraw",[11]; 62 g/ha,100
same,"Plant response rating, Bedstraw",[11]; 125 g/ha,100
same,"Plant response rating (0 to 100), Bedstraw",[11]; Rate 16 g/ha,80
same,"Plant response rating (0 to 100), Bedstraw",[11]; Rate 31 g/ha,90
same,"Plant response rating, Soybean","[12]; POSTEMERGENCE, Rate 50 g/ha",4
same,"Plant response rating, Soybean","[12]; PREEMERGENCE, Rate 50 g/ha",0
same,"Plant response rating, Soybean","[12]; Rate 200 g/ha, POSTEMERGENCE",5
same,"Plant response rating, Soybean","[12]; Rate 200 g/ha, PREEMERGENCE",0
same,"Plant response rating, Blackgrass",[13]; 62 g/ha,30
same,"Plant response rating, Blackgrass",[13]; 125 g/ha,30
same,"Plant response rating (0 to 100), Blackgrass",[13]; Rate 16 g/ha,10
same,"Plant response rating (0 to 100), Blackgrass",[13]; Rate 31 g/ha,20
same,"Plant response rating (0 to 100), Umbrella sedge",[14]; Rate 16 g/ha,0
same,"Plant response rating (0 to 100), Umbrella sedge",[14]; Rate 31 g/ha,10
same,Plant response rating Umbrella sedge,[14]; 62 g/ha,70
same,Plant response rating Umbrella sedge,[14]; 125 g/ha,90
same,"Plant response rating, Nutsedge","[15]; POSTEMERGENCE, Rate 50 g/ha",2
same,"Plant response rating, Nutsedge","[15]; PREEMERGENCE, Rate 50 g/ha",0
same,"Plant response rating, Nutsedge","[15]; Rate 200 g/ha, POSTEMERGENCE",5
same,"Plant response rating, Nutsedge","[15]; Rate 200 g/ha, PREEMERGENCE",0
same,"Plant response rating (0 to 100), Rice Japonica",[16]; Rate 16 g/ha,0
same,"Plant response rating (0 to 100), Rice Japonica",[16]; Rate 31 g/ha,10
same,Plant response rating Rice Japonica,[16]; 62 g/ha,20
same,Plant response rating Rice Japonica,[16]; 125 g/ha,40
same,"Plant response rating, Velvetleaf",[17]; 62 g/ha,100
same,"Plant response rating, Velvetleaf",[17]; 125 g/ha,100
same,"Plant response rating (0 to 100), Velvetleaf",[17]; Rate 16 g/ha,100
same,"Plant response rating (0 to 100), Velvetleaf",[17]; Rate 31 g/ha,100
